According to US20250195530A1, “POLQ INHIBITORS” (ASTRAZENECA AB, priority 2022, published 2025):
Where two headings read alike, the source gives them in different places.

Tested on: DLD-1 BRCA2−/− cells
Experiment: Homologous recombination synthetic lethal inhibition of proliferation, DLD-1 BRCA2-/- (Cell Titre Glo 3D)
Assay type: cell-based
Settings: for POLQ PD Prolif Lumin: DLD-1 BRCA2-/- proliferation; for IC50: Homo sapiens, read-out: POLQ PD Prolif Lumin (converted)
How it was run: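 Read-out: CellTiter-Glo 3D luminescence, day 7 for wt DLD-1, day 12 for BRCA2−/−, about 8-9 population doublings each. Seeding 1,500 or 3,000 cells/mL respectively. Dose range 10 μM–0.51 nM, 3-fold, 10 points, with re-dosing on day 6. IC50 from curve fit.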

[1] = DLD-1, DLD-1 BRCA2-/- proliferation, column head only partly shown
[2] = DLD-1, first proliferation column (c5), taken as DLD-1 BRCA2-/-

Row | SMILES | IC50 [1] [nM] | IC50 [2] [nM] | also measured
1 | CC1(Oc2ncnc3c2nc(-c2cccc(O[C@H]4C[C@H](C(=O)O)C4)c2Cl)n3Cc2cccc(Cl)c2)CC1 [Example T256, (1r,3r)-3-(2-chloro-3-(9-(3-chlorobenzyl)-6-(1-methylcyclopropoxy)-9H-purin-8-yl)phenoxy)cyclobutane-1-carboxylic acid] | – | – | POLQ PD Prolif Lumin (column head only partly shown): 6.9
2 | CC1(Oc2ncnc3c2nc(-c2cccc(O[C@H]4C[C@@H](C(=O)O)C4)c2Cl)n3Cc2cccc(Cl)c2)CC1 [Example T257, (1s,3s)-3-(2-chloro-3-(9-(3-chlorobenzyl)-6-(1-methylcyclopropoxy)-9H-purin-8-yl)phenoxy)cyclobutane-1-carboxylic acid] | – | – | POLQ PD Prolif Lumin (column head only partly shown): 7
3 | C#CCNC(=O)COc1ccc(-c2nc3c(OC4(C)CC4)ncnc3n2Cc2cc(C)ccn2)c(Cl)c1 [Example T266, 2-(3-chloro-4-(6-(1-methylcyclopropoxy)-9-((4-methylpyridin-2-yl)methyl)-9H-purin-8-yl)phenoxy)-N-(prop-2-yn-1-yl)acetamide] | 158 | – | –
4 | Cc1ccnc(Cn2c(-c3ccc(C(=O)NC4CC(F)C4)cc3Cl)nc3c(OC4(C)CC4)ncnc32)c1 (centres unmarked) [Example T280, 3-chloro-N-(3-fluorocyclobutyl)-4-(6-(1-methylcyclopropoxy)-9-((4-methylpyridin-2-yl)methyl)-9H-purin-8-yl)benzamide] | 794 | – | –
5 | Cc1ccnc(Cn2c(-c3ccc(C(=O)N4CC[C@H](F)C4)cc3Cl)nc3c(OC4(C)CC4)ncnc32)c1 [Example T281, (S)-(3-chloro-4-(6-(1-methylcyclopropoxy)-9-((4-methylpyridin-2-yl)methyl)-9H-purin-8-yl)phenyl)(3-fluoropyrrolidin-1-yl)methanone] | 794 | – | –
6 | Cc1ccnc(Cn2c(-c3ccc(C(=O)N4C[C@@H](O)[C@H](F)C4)cc3Cl)nc3c(OC4(C)CC4)ncnc32)c1 [Example T282, (3-chloro-4-(6-(1-methylcyclopropoxy)-9-((4-methylpyridin-2-yl)methyl)-9H-purin-8-yl)phenyl)((3R,4R)-3-fluoro-4-hydroxypyrrolidin-1-yl)methanone] | 2510 | – | –
7 | Cc1ccnc(Cn2c(-c3ccc(OCC(=O)N4CC(F)C4)cc3Cl)nc3c(OC4(C)CC4)ncnc32)c1 [Example T283, 2-(3-chloro-4-(6-(1-methylcyclopropoxy)-9-((4-methylpyridin-2-yl)methyl)-9H-purin-8-yl)phenoxy)-1-(3-fluoroazetidin-1-yl)ethan-1-one] | 158 | – | –
8 | Cc1ccnc(Cn2c(-c3ccc(C(=O)N(C)CCC#N)cc3Cl)nc3c(OC4(C)CC4)ncnc32)c1 [Example T286, 3-chloro-N-(2-cyanoethyl)-N-methyl-4-(6-(1-methylcyclopropoxy)-9-((4-methylpyridin-2-yl)methyl)-9H-purin-8-yl)benzamide] | 1260 | – | –
9 | Cc1ccnc(Cn2c(-c3ccc(C(=O)N4CCNC(=O)C4)cc3Cl)nc3c(OC4(C)CC4)ncnc32)c1 [Example T287, 4-(3-chloro-4-(6-(1-methylcyclopropoxy)-9-((4-methylpyridin-2-yl)methyl)-9H-purin-8-yl)benzoyl)piperazin-2-one] | > 7940 | – | –
10 | CC1(Oc2ncnc3c2nc(-c2ccc(CCCCC(=O)O)cc2Cl)n3Cc2cccc(Cl)c2)CC1 [Example T289, 5-(3-chloro-4-(9-(3-chlorobenzyl)-6-(1-methylcyclopropoxy)-9H-purin-8-yl)phenyl)pentanoic acid] | 126 | – | –
11 | C[C@H](CCOc1cccc(-c2nc3c(OC4(C)CC4)ncnc3n2Cc2cccc(Cl)c2)c1Cl)C(=O)O [Example T297, (R)-4-(2-chloro-3-(9-(3-chlorobenzyl)-6-(1-methylcyclopropoxy)-9H-purin-8-yl)phenoxy)-2-methylbutanoic acid] | 63.1 | – | –
12 | CC1(Oc2ncnc3c2nc(-c2cccc(OCC(C)(C)C(=O)O)c2Cl)n3Cc2cccc(Cl)c2)CC1 [Example T298, 3-(2-chloro-3-(9-(3-chlorobenzyl)-6-(1-methylcyclopropoxy)-9H-purin-8-yl)phenoxy)-2,2-dimethylpropanoic acid] | – | 631 | –
13 | CC1(Oc2ncnc3c2nc(-c2ccc(OCC[C@@](C)(O)C(=O)O)cc2Cl)n3Cc2cccc(Cl)c2)CC1 [Example T301, (R)-4-(3-chloro-4-(9-(3-chlorobenzyl)-6-(1-methylcyclopropoxy)-9H-purin-8-yl)phenoxy)-2-hydroxy-2-methylbutanoic acid] | – | 2510 | –
14 | CC1(Oc2ncnc3c2nc(-c2ccc(OCCOCCC(=O)O)cc2Cl)n3Cc2cccc(Cl)c2)CC1 [Example T303, 3-(2-(3-chloro-4-(9-(3-chlorobenzyl)-6-(1-methylcyclopropoxy)-9H-purin-8-yl)phenoxy)ethoxy)propanoic acid] | – | 126 | –
15 | C[C@@H](OCCOc1ccc(-c2nc3c(OC4(C)CC4)ncnc3n2Cc2cccc(Cl)c2)c(Cl)c1)C(=O)O [Example T306, (R)-2-(2-(3-chloro-4-(9-(3-chlorobenzyl)-6-(1-methylcyclopropoxy)-9H-purin-8-yl)phenoxy)ethoxy)propanoic acid] | – | 794 | –
16 | Cc1ccnc(Cn2c(-c3ccc(C(=O)N4CCCC4)cc3Cl)nc3c(OC4(C)CC4)ncnc32)c1 [Example T309, (3-chloro-4-(6-(1-methylcyclopropoxy)-9-((4-methylpyridin-2-yl)methyl)-9H-purin-8-yl)phenyl)(pyrrolidin-1-yl)methanone] | – | 631 | –
17 | Cc1ccnc(Cn2c(-c3ccc(OCC(=O)N4CCC4)cc3Cl)nc3c(OC4(C)CC4)ncnc32)c1 [Example T312, 1-(azetidin-1-yl)-2-(3-chloro-4-(6-(1-methylcyclopropoxy)-9-((4-methylpyridin-2-yl)methyl)-9H-purin-8-yl)phenoxy)ethan-1-one] | – | 200 | –
18 | Cc1ccnc(Cn2c(-c3ccc(OCCN4CCC4=O)cc3Cl)nc3c(OC4(C)CC4)ncnc32)c1 [Example T313, 1-(2-(3-chloro-4-(6-(1-methylcyclopropoxy)-9-((4-methylpyridin-2-yl)methyl)-9H-purin-8-yl)phenoxy)ethyl)azetidin-2-one] | – | 200 | –
19 | Cc1ccnc(Cn2c(-c3ccc(C(=O)N4CC(C)(O)C4)cc3Cl)nc3c(OC4(C)CC4)ncnc32)c1 [Example T314, (3-chloro-4-(6-(1-methylcyclopropoxy)-9-((4-methylpyridin-2-yl)methyl)-9H-purin-8-yl)phenyl)(3-hydroxy-3-methylazetidin-1-yl)methanone] | – | 1260 | –
20 | Cc1ccnc(Cn2c(-c3ccc(C(=O)N4CCOCC4)cc3Cl)nc3c(OC4(C)CC4)ncnc32)c1 [Example T315, (3-chloro-4-(6-(1-methylcyclopropoxy)-9-((4-methylpyridin-2-yl)methyl)-9H-purin-8-yl)phenyl)(morpholino)methanone] | – | 1580 | –
21 | Cc1ccnc(Cn2c(-c3ccc(C(=O)N[C@@H]4CCOC4)cc3Cl)nc3c(OC4(C)CC4)ncnc32)c1 [Example T316, (R)-3-chloro-4-(6-(1-methylcyclopropoxy)-9-((4-methylpyridin-2-yl)methyl)-9H-purin-8-yl)-N-(tetrahydrofuran-3-yl)benzamide] | – | 631 | –
22 | Cc1ccnc(Cn2c(-c3ccc(C(=O)NC4(C)COC4)cc3Cl)nc3c(OC4(C)CC4)ncnc32)c1 [Example T317, 3-chloro-4-(6-(1-methylcyclopropoxy)-9-((4-methylpyridin-2-yl)methyl)-9H-purin-8-yl)-N-(3-methyloxetan-3-yl)benzamide] | – | 1000 | –
23 | Cc1ccnc(Cn2c(-c3ccc(OCC(=O)NC4CC4)cc3Cl)nc3c(OC4(C)CC4)ncnc32)c1 [Example T318, 2-(3-chloro-4-(6-(1-methylcyclopropoxy)-9-((4-methylpyridin-2-yl)methyl)-9H-purin-8-yl)phenoxy)-N-cyclopropylacetamide] | – | 398 | –
24 | Cc1ccnc(Cn2c(-c3ccc(C(=O)NC4CC(O)C4)cc3Cl)nc3c(OC4(C)CC4)ncnc32)c1 (centres unmarked) [Example T319, 3-chloro-N-(3-hydroxycyclobutyl)-4-(6-(1-methylcyclopropoxy)-9-((4-methylpyridin-2-yl)methyl)-9H-purin-8-yl)benzamide] | – | 2510 | –
25 | Cc1ccnc(Cn2c(-c3ccc(C(=O)N(C)C4COC4)cc3Cl)nc3c(OC4(C)CC4)ncnc32)c1 [Example T320, 3-chloro-N-methyl-4-(6-(1-methylcyclopropoxy)-9-((4-methylpyridin-2-yl)methyl)-9H-purin-8-yl)-N-(oxetan-3-yl)benzamide] | – | 3160 | –
26 | Cc1ccnc(Cn2c(-c3ccc(OCC(=O)N4CC(O)C4)cc3Cl)nc3c(OC4(C)CC4)ncnc32)c1 [Example T322, 2-(3-chloro-4-(6-(1-methylcyclopropoxy)-9-((4-methylpyridin-2-yl)methyl)-9H-purin-8-yl)phenoxy)-1-(3-hydroxyazetidin-1-yl)ethan-1-one] | – | 631 | –
27 | Cc1ccnc(Cn2c(-c3ccc(OCC(=O)NC4COC4)cc3Cl)nc3c(OC4(C)CC4)ncnc32)c1 [Example T323, 2-(3-chloro-4-(6-(1-methylcyclopropoxy)-9-((4-methylpyridin-2-yl)methyl)-9H-purin-8-yl)phenoxy)-N-(oxetan-3-yl)acetamide] | – | 200 | –
28 | Cc1ccnc(Cn2c(-c3ccc(OC[C@@H]4CNC(=O)CO4)cc3Cl)nc3c(OC4(C)CC4)ncnc32)c1 [Example T324, (S)-6-((3-chloro-4-(6-(1-methylcyclopropoxy)-9-((4-methylpyridin-2-yl)methyl)-9H-purin-8-yl)phenoxy)methyl)morpholin-3-one] | – | 398 | –
29 | CC1(Oc2ncnc3c2nc(-c2cccc(OCCCC(=O)NS(C)(=O)=O)c2Cl)n3Cc2cccc(Cl)c2)CC1 [Example T325, 4-(2-chloro-3-(9-(3-chlorobenzyl)-6-(1-methylcyclopropoxy)-9H-purin-8-yl)phenoxy)-N-(methylsulfonyl)butanamide] | – | 316 | –
